Data reported in patent publication US10576076B2 (priority 2015, dated 2020).

What was measured:
[1] = test system: influenza vaccine strains; test: Clinical study in elderly volunteers: response to influenza vaccination after 6 weeks of mTOR inhibitor dosing; format: in vivo, human; settings: 4 weeks after vaccination, 2 week drug-free break
Protocol: In a clinical study elderly volunteers were treated for 6 weeks daily with one of four mTOR inhibitor dosing regimens: 0.5 mg/day RAD001, 0.1 mg/day RAD001, 10 mg/day BEZ235 or 0.1 mg/day RAD001+10 mg/day BEZ235.
After being dosed for 6 weeks, the elderly volunteers were given a 2 week drug-free break and then received influenza vaccination. […] All dosing regimens were relatively well tolerated. […] However the majority of these adverse events were of mild severity, transient and resolved despite continued dosing of mTOR inhibitors.

mTOR = mTOR (Homo sapiens, UniProt P42345); settings: low concentration; cited from earlier work
PI3K/mTOR = settings: relatively higher concentrations; cited from earlier work

Row | Compound | vaccine strains with GMT ratio as compared to placebo >1.2 ([1]; BEZ235 10 mg/day monotherapy for 6 weeks) | concentration at which mTOR inhibition predominates (mTOR) | concentration at which dual PI3K/mTOR inhibition occurs (PI3K/mTOR) | vaccine strains with GMT ratio as compared to placebo >1.2 ([1]; RAD001 0.1 mg/day monotherapy for 6 weeks) | vaccine strains with GMT ratio as compared to placebo >1.2 ([1]; RAD001 0.5 mg/day monotherapy for 6 weeks)
1 | Cn1c(=O)n(-c2ccc(C(C)(C)C#N)cc2)c2c3cc(-c4cnc5ccccc5c4)ccc3ncc21 [BEZ235, 2-methyl-2-[4-(3-methyl-2-oxo-8-quinolin-3-yl-2,3-dihydro-imidazo[4,5-c]quinolin-1-yl)-phenyl]-propionitrile] | 0/3 | less than 100 nmol/L | approximately 500 nmol/L |  | 
2 | CO[C@H]1C[C@@H]2CC[C@@H](C)[C@@](O)(O2)C(=O)C(=O)N2CCCC[C@H]2C(=O)O[C@H]([C@H](C)C[C@@H]2CC[C@@H](OCCO)[C@H](OC)C2)CC(=O)[C@H](C)/C=C(\C)[C@@H](O)[C@@H](OC)C(=O)[C@H](C)C[C@H](C)/C=C/C=C/C=C/1C [RAD001, (1R,9S,12S,15R,16E,18R,19R,21R,23S,24E,26E,28E,30S,32S,35R)-1,18-dihydroxy-12-{(1R)-2-[(1S,3R,4R)-4-(2-hydroxyethoxy)-3-methoxycyclohexyl]-1-methylethyl}-19,30-dimethoxy-15,17,21,23,29,35-hexamethyl-11,36-dioxa-4-aza-tricyclo[30.3.1.04,9]hexatriaconta-16,24,26,28-tetraene-2,3,10,14,20-pentaone] |  |  |  | ⅓ | ⅓
